Consider 25 compounds from patent US20230000870A1, “METHODS OF TREATING CANCER IN BIOMARKER-IDENTIFIED PATIENTS WITH INHIBITORS OF CYCLIN-DEPENDENT KINASE 7 (CDK7)” (Syros Pharmaceuticals, Inc., priority 2019, published 2023).

One test has as its target CDK2/Cyclin E1 complex (Homo sapiens, UniProt P24941). In words: CDK2 kinase inhibition assay (Caliper/LabChip EZ Reader). It counts as biochemical. Particulars: CDK2/Cyclin E1 0.5 nM, ATP 2 mM, 35 min at 27° C. The procedure, abridged:
(§1)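 Incubation times were set for ~20% (±5%) peptide phosphorylation by uninhibited enzyme: CDK7 35 min, CDK2 35 min (0.5 nM complex, 2 μM 5-FAM-CDK7tide, 2 mM MgCl2), CDK12 3 hr (50 nM, 2 μM 5-FAM-CDK9tide, 2 mM MgCl2), CDK9 15 min (8 nM, 2 μM 5-FAM-CDK9tide, 10 mM MgCl2). Read-out on LabChip EZ Reader, 27° C.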

Test [1] addresses CDK7/Cyclin H/MAT1 complex (Homo sapiens, UniProt P50613). In words: CDK7 kinase inhibition assay (Caliper/LabChip EZ Reader). Particulars: CDK7/Cyclin H/MAT1 6 nM, ATP 2 mM, 35 min at 27° C. It is filed as biochemical. The procedure, abridged: as §1
Another test concerns the target CDK9/Cyclin T1 complex (Homo sapiens, UniProt P50750). In words: CDK9 kinase inhibition assay (Caliper/LabChip EZ Reader). The following applies: CDK9/Cyclin T1 8 nM, ATP 2 mM, 15 min at 27° C. It counts as biochemical. A digest of the protocol:
as §1

Test [2] has as its target T1, CDK12 (aa686-1082)/Cyclin K complex (Homo sapiens, UniProt Q9NYV4).
T1 construct: CDK12 (aa686-1082)/Cyclin K complex
In words: CDK12 kinase inhibition assay (Caliper/LabChip EZ Reader). It is filed as biochemical. Particulars: CDK12 (aa686-1082)/Cyclin K 50 nM, ATP 2 mM, 3 hr at 27° C. A digest of the protocol: as §1

The next test deals with A673 cells. In words: Inhibition of proliferation of A673 cells (CyQUANT, 72 hour). It is filed as cell-based, human. The following applies: read-out: Inhibition of Proliferation of A673 Cells (calculated IC50). The procedure, abridged: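 Read-out is CyQUANT after a 72 h proliferation period, following the kit protocol. Dilution series in 0.5-log steps over the stated 4 μM to […] range. Cells are A673 (human Ewing's sarcoma), grown in DMEM with 10% FBS and 1 mM sodium pyruvate at 37 °C under 5% CO2.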

pIC50: −log10 of the molar value. Some results are limits rather than exact numbers.

Chain of CDK9/Cyclin T1 complex (P50750 whole entry): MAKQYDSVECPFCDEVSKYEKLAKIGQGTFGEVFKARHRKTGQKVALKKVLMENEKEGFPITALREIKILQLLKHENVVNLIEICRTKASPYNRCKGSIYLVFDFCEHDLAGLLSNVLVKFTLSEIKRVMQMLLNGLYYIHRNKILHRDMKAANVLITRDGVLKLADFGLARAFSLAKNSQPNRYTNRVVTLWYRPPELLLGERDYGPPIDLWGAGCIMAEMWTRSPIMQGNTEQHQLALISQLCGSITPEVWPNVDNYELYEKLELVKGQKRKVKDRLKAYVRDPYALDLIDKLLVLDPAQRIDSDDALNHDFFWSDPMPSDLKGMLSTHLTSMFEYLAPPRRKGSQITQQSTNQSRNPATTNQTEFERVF
Chain of CDK9/Cyclin T1 complex (O60563 whole entry partner): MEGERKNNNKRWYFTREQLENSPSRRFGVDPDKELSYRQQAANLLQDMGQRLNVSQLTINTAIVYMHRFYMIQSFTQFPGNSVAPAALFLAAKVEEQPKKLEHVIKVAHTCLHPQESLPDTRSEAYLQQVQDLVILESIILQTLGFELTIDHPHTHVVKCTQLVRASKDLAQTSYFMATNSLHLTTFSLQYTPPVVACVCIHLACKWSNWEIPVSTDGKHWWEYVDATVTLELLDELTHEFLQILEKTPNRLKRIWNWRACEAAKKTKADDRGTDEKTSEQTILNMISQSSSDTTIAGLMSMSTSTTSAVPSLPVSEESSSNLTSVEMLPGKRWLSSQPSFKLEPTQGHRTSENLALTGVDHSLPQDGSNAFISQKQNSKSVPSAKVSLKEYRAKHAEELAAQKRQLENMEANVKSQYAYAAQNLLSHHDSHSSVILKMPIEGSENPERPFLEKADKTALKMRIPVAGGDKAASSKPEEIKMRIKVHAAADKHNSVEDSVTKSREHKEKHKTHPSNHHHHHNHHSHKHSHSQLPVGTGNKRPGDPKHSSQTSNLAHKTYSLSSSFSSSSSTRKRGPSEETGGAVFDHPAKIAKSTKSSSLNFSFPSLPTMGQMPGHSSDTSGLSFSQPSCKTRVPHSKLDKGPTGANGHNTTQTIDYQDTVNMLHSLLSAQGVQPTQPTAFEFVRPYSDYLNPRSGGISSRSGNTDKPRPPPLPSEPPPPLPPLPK
T1 sequence (Q9NYV4 686-1082): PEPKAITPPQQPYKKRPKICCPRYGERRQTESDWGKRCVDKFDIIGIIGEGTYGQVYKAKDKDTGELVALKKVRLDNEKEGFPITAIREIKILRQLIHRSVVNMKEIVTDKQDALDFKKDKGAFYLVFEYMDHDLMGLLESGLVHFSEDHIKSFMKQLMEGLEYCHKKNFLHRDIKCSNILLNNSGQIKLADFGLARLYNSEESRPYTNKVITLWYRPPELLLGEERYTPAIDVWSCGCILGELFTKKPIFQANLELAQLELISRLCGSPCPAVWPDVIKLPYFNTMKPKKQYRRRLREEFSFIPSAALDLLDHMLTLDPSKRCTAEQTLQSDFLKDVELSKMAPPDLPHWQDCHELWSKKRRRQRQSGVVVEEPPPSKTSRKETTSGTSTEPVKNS
T1 sequence (O75909 whole entry partner, the tested form may be a part): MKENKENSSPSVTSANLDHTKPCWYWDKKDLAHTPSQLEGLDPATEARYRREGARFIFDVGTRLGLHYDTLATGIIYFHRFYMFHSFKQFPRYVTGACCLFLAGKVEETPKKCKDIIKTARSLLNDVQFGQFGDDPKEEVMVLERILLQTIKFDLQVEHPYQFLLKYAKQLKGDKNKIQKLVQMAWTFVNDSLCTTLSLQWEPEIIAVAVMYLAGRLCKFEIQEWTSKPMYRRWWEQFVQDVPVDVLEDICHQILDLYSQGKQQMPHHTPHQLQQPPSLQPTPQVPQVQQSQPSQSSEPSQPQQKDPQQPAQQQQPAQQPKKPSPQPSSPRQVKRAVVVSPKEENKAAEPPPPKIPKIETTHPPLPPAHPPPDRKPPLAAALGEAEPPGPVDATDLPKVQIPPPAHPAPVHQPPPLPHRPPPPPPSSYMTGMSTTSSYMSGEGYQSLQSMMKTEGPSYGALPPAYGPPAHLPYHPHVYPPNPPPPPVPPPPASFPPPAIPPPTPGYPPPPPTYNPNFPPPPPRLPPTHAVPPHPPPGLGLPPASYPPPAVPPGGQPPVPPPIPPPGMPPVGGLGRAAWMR
Chain of CDK7/Cyclin H/MAT1 complex (P50613 whole entry): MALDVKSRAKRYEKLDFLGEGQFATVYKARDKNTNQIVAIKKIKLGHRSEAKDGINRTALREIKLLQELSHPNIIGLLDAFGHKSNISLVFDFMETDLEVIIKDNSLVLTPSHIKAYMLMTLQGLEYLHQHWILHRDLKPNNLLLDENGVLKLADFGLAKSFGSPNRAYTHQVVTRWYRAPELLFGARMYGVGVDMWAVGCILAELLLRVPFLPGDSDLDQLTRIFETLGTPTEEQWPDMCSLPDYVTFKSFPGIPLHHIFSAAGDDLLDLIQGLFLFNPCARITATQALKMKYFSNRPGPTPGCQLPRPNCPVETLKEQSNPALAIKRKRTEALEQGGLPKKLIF
Chain of CDK7/Cyclin H/MAT1 complex (P51946 whole entry partner): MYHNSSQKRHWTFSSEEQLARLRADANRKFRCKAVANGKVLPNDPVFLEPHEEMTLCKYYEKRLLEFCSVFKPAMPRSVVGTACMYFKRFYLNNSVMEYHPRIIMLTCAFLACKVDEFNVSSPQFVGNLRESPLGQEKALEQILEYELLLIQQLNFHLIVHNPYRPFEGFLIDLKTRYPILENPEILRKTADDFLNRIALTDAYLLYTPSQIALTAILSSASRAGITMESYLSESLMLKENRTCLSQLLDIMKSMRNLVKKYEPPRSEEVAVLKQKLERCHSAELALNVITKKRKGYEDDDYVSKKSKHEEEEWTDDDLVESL
Chain of CDK7/Cyclin H/MAT1 complex (P51948 whole entry partner): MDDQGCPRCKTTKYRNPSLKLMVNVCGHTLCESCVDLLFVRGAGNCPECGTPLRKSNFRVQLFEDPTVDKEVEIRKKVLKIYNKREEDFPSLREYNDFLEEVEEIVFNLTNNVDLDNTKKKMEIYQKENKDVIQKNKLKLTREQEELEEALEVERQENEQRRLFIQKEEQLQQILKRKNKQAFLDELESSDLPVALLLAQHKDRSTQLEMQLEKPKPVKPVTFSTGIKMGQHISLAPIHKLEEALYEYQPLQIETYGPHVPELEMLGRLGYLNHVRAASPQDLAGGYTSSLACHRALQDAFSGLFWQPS

On to `CCC(=O)NC1CNCC(Nc2ncc(C(F)(F)F)c(-c3c[nH]c4c(S(C)(=O)=O)cccc34)n2)C1` (centres unmarked) [Compound 259], for which the pIC50 against CDK2/Cyclin E1 complex was 5.30 to 6.70; in test [1], > 7.70; against CDK9/Cyclin T1 complex, 5.30 to 6.70; in test [2], 5.30 to 6.70; with A673 cells, 6.70 to 7.70.
Consider `N#Cc1cnc(NC2CCCNC2)nc1-c1c[nH]c2ccccc12` (centres unmarked) [Compound 157], for which the pIC50 is 5.30 to 6.70 on CDK2/Cyclin E1 complex; > 7.70 in test [1]; 5.30 to 6.70 on CDK9/Cyclin T1 complex; 5.30 to 6.70 in test [2]; > 7.70 in the test on A673 cells.
Take `Cc1nn(C)cc1-c1ccc2c(-c3nc(N[C@H]4CCCNC4)ncc3C(F)(F)F)c[nH]c2c1` [Compound 226]: the pIC50 at CDK2/Cyclin E1 complex is 5.30 to 6.70; in test [1], > 7.70; on CDK9/Cyclin T1 complex it was 5.30 to 6.70; in test [2] it was 5.30 to 6.70; in the test with A673 cells it was > 7.70.
As to `CNC(=O)C1CNCC(Nc2ncc(C(F)(F)F)c(-c3c[nH]c4ccccc34)n2)C1` (centres unmarked) [Compound 252], the pIC50 is 5.30 to 6.70 against CDK2/Cyclin E1 complex; 6.70 to 7.70 in test [1]; ≤ 5.30 on CDK9/Cyclin T1 complex; ≤ 5.30 in test [2]; 5.30 to 6.70 in the test on A673 cells.
`O=C(c1ccc2c(-c3nc(N[C@H]4CCCNC4)ncc3C(F)(F)F)c[nH]c2c1)N1CC[C@@H](O)C1` [Compound 205]: the pIC50 against CDK2/Cyclin E1 complex is ≤ 5.30; in test [1] it was > 7.70; on CDK9/Cyclin T1 complex, ≤ 5.30; in test [2] it was 5.30 to 6.70; in the test with A673 cells, 5.30 to 6.70.
Regarding `Clc1cnc(NC2CCCNC2)nc1-c1c[nH]c2ccccc12` (centres unmarked) [Compound 100], the pIC50 is 5.30 to 6.70 at CDK2/Cyclin E1 complex; > 7.70 in test [1]; 5.30 to 6.70 against CDK9/Cyclin T1 complex; 5.30 to 6.70 in test [2]; > 7.70 in the test on A673 cells.
For `CC(O)c1cnc(NC2CCCNC2)nc1-c1c[nH]c2ccccc12` (centres unmarked) [Compound 247], the pIC50 is ≤ 5.30 at CDK2/Cyclin E1 complex; 5.30 to 6.70 in test [1]; ≤ 5.30 on CDK9/Cyclin T1 complex; ≤ 5.30 in test [2]; 5.30 to 6.70 in the test with A673 cells.
As for `N#Cc1ccc2c(-c3nc(NC4CCCNC4)ncc3C(F)(F)F)c[nH]c2c1C#N` (centres unmarked) [Compound 258], the pIC50 at CDK2/Cyclin E1 complex was 5.30 to 6.70; in test [1], > 7.70; against CDK9/Cyclin T1 complex it was 5.30 to 6.70; in test [2], 5.30 to 6.70; in the test on A673 cells, 6.70 to 7.70.
Regarding `C#Cc1cnc(NC2CCCNC2)nc1-c1c[nH]c2ccccc12` (centres unmarked) [Compound 194], the pIC50 is 5.30 to 6.70 on CDK2/Cyclin E1 complex; > 7.70 in test [1]; 5.30 to 6.70 on CDK9/Cyclin T1 complex; 5.30 to 6.70 in test [2]; > 7.70 in the test with A673 cells.
`Cc1nn(C)cc1-c1cccc2c(-c3nc(NC4CCCNC4)ncc3C(F)(F)F)c[nH]c12` (centres unmarked) [Compound 171]: the pIC50 on CDK2/Cyclin E1 complex was 5.30 to 6.70; in test [1], > 7.70; at CDK9/Cyclin T1 complex it was 5.30 to 6.70; in test [2], 5.30 to 6.70; in the test with A673 cells, > 7.70.
Turning to `COc1cnc(N[C@H]2CCCNC2)nc1-c1c[nH]c2ccccc12` [Compound 189], the pIC50 against CDK2/Cyclin E1 complex was ≤ 5.30; in test [1], 5.30 to 6.70; on CDK9/Cyclin T1 complex, ≤ 5.30; in test [2], ≤ 5.30; with A673 cells it was 5.30 to 6.70.
For `CC(C)N1CCCC(Nc2ncc(Cl)c(-c3c[nH]c4ccccc34)n2)C1` (centres unmarked) [Compound 148], the pIC50 at CDK2/Cyclin E1 complex was ≤ 5.30; in test [1], 6.70 to 7.70; at CDK9/Cyclin T1 complex it was 5.30 to 6.70; in test [2], 5.30 to 6.70; in the test on A673 cells it was 6.70 to 7.70.
Take `Cc1cccc2c(-c3nc(NC4CCCNC4)ncc3CC(C)C)c[nH]c12` (centres unmarked) [Compound 140]: the pIC50 against CDK2/Cyclin E1 complex is ≤ 5.30; in test [1], 5.30 to 6.70; on CDK9/Cyclin T1 complex, ≤ 5.30; in test [2], ≤ 5.30; in the test with A673 cells it was 5.30 to 6.70.
In the case of `CCc1cnc(NC2CCCNC2)nc1-c1n[nH]c2ncccc12` (centres unmarked) [Compound 262], the pIC50 against CDK2/Cyclin E1 complex is 5.30 to 6.70; in test [1], > 7.70; against CDK9/Cyclin T1 complex, 5.30 to 6.70; in test [2], 5.30 to 6.70; in the test with A673 cells it was 6.70 to 7.70.
Consider `CC1(Nc2ncc(Cl)c(-c3c[nH]c4ccccc34)n2)CCCNC1` (centres unmarked) [Compound 115], for which the pIC50 against CDK2/Cyclin E1 complex was ≤ 5.30; in test [1] it was 5.30 to 6.70; at CDK9/Cyclin T1 complex, ≤ 5.30; in test [2], ≤ 5.30; in the test on A673 cells, 5.30 to 6.70.
For the compound `FC(F)(F)c1cnc(NC2CNCc3ccccc32)nc1-c1c[nH]c2ccccc12` (centres unmarked) [Compound 216], the pIC50 against CDK2/Cyclin E1 complex was 5.30 to 6.70; in test [1], 5.30 to 6.70; on CDK9/Cyclin T1 complex it was ≤ 5.30; in test [2] it was ≤ 5.30; in the test on A673 cells, 5.30 to 6.70.
As to `Cn1cc(-c2ccc3c(-c4nc(NC5CCCNC5)ncc4C(F)(F)F)c[nH]c3c2)cc1C#N` (centres unmarked) [Compound 225], the pIC50 was 5.30 to 6.70 against CDK2/Cyclin E1 complex; > 7.70 in test [1]; 5.30 to 6.70 on CDK9/Cyclin T1 complex; 5.30 to 6.70 in test [2]; 6.70 to 7.70 in the test with A673 cells.
With `FC(F)(F)c1cnc(NC2CCCNC2)nc1-c1c[nH]c2ccccc12` (centres unmarked) [Compound 102], the pIC50 was 5.30 to 6.70 at CDK2/Cyclin E1 complex; > 7.70 in test [1]; 6.70 to 7.70 against CDK9/Cyclin T1 complex; 6.70 to 7.70 in test [2]; > 7.70 in the test on A673 cells.
For the compound `Cc1nc(-c2ccc3c(-c4nc(NC5CCCNC5)ncc4C(F)(F)F)c[nH]c3c2)n[nH]1` (centres unmarked) [Compound 235], the pIC50 against CDK2/Cyclin E1 complex is 5.30 to 6.70; in test [1], > 7.70; on CDK9/Cyclin T1 complex it was 5.30 to 6.70; in test [2] it was 5.30 to 6.70; in the test with A673 cells, 5.30 to 6.70.
As to `OC1CNCC(Nc2ncc(C(F)(F)F)c(-c3c[nH]c4ccccc34)n2)C1` (centres unmarked) [Compound 203], the pIC50 is 5.30 to 6.70 at CDK2/Cyclin E1 complex; > 7.70 in test [1]; 5.30 to 6.70 against CDK9/Cyclin T1 complex; 5.30 to 6.70 in test [2]; > 7.70 in the test on A673 cells.
Regarding `CCS(=O)(=O)c1ccc2c(-c3nc(NC4CCCNC4)ncc3C(F)(F)F)c[nH]c2c1` (centres unmarked) [Compound 274], the pIC50 on CDK2/Cyclin E1 complex was 5.30 to 6.70; in test [1], > 7.70; on CDK9/Cyclin T1 complex, 5.30 to 6.70; in test [2], 5.30 to 6.70; with A673 cells, 6.70 to 7.70.
For `Clc1cnc(N[C@H]2CCCNC2)nc1-c1n[nH]c2ccccc12` [Compound 174], the pIC50 against CDK2/Cyclin E1 complex was 5.30 to 6.70; in test [1], > 7.70; at CDK9/Cyclin T1 complex, 5.30 to 6.70; in test [2], 5.30 to 6.70; in the test on A673 cells it was 6.70 to 7.70.
`CCC1CCC(Nc2ncc(C(F)(F)F)c(-c3c[nH]c4ccccc34)n2)CN1` (centres unmarked) [Compound 211]: the pIC50 against CDK2/Cyclin E1 complex is 5.30 to 6.70; in test [1], 6.70 to 7.70; at CDK9/Cyclin T1 complex it was 5.30 to 6.70; in test [2] it was 5.30 to 6.70; in the test with A673 cells, 6.70 to 7.70.
Regarding `CC(C)C1CCC(Nc2ncc(C(F)(F)F)c(-c3c[nH]c4ccccc34)n2)CN1` (centres unmarked) [Compound 260], the pIC50 against CDK2/Cyclin E1 complex was ≤ 5.30; in test [1], 5.30 to 6.70; against CDK9/Cyclin T1 complex, ≤ 5.30; in test [2], 5.30 to 6.70; with A673 cells it was 5.30 to 6.70.
Take `Fc1cc2[nH]cc(-c3nc(NC4CCCNC4)ncc3Cl)c2cc1F` (centres unmarked) [Compound 111]: the pIC50 is 5.30 to 6.70 against CDK2/Cyclin E1 complex; > 7.70 in test [1]; 6.70 to 7.70 on CDK9/Cyclin T1 complex; 6.70 to 7.70 in test [2]; 6.70 to 7.70 with A673 cells.
